Data: patent US12522596B2, “Compounds as GLP-1R agonists” (Terns Pharmaceuticals, Inc., priority 2021, dated 2026)

Experiments:
Type in all cases: in vitro ADME
[1] = Metabolic stability in rat hepatocytes; settings: cryopreserved hepatocytes, 1 μM
Experimental: (§1) Test compounds were incubated in rat and human hepatocytes and stability was assessed from the substrate […] approach. Test compounds were dissolved in dimethyl sulfoxide (DMSO) to create a 10 mM Stock, and then further diluted to create a 1000× Working Stock of 1 mM with DMSO in 96-well plates for test compounds and the positive control (midazolam). Vials containing cryopreserved hepatocytes were removed from the liquid nitrogen tank and immediately immersed in a 37° C. water bath. The vials were shaken gently until the contents had thawed and were then immediately emptied into 48 mL of pre-warmed HT Medium in a 50 mL conical tube. Cells remaining in the vial were resuspended with 1.0 mL of pre-warmed HT Medium and added to the conical tube. The tube was capped and then gently inverted several times to resuspend the hepatocytes. The cell suspension was centrifuged at 50×g at room temperature for 5 minutes and the supernatant discarded. The cell pellet was loosened by gently swirling the centrifuge tube and was re-suspended in 4 mL of warm Dulbecco's Modified Eagle medium (DMEM). Cell density was determined by a cell counter by Nexcelom, and DMEM medium was added to obtain a target density of 1×10^6 cells/mL. The assay was carried out in 96-well microtiter plates. Test Compounds were incubated at 1 μM with 1×10^6 cells/mL hepatocytes in DMEM for 0, 30, 60, 120 and 240 minutes. The incubation was carried out with gentle shaking at 37° C. under a humid atmosphere of 95% air/5% CO2. The volume of the incubation mixture was 37 μL with a final 0.1% DMSO. At each of the time points, the incubation was stopped by adding 150 μL quenching solution (100% acetonitrile, 0.1% formic acid containing bucetin as an internal standard for positive ESI mode). Subsequently, the mixtures were vortexed for 20 min and centrifuged at 4,000 RPM at 10° C. The supernatant (80 μL) was transferred to a clean 96-well plate and analyzed by LC-MS/MS. Midazolam at 1 μM with a final 0.1% DMSO was included as a positive control to verify assay performance. The percent parent remaining, intrinsic and predicted hepatic clearance and t1/2 were calculated. All samples were analyzed by LC-MS/MS using an AB Sciex API 4000 instrument, coupled to a Shimadzu LC-20AD LC Pump system. Separation was achieved using a Waters Atlantis T3 dC18 reverse phase HPLC column (20 mm×2.1 mm) at a flow rate of 0.5 mL/min. The mobile phase consisted of 0.1% formic acid in water (solvent A) and 0.1% formic acid in 100% acetonitrile (solvent B). Elution conditions are detailed below.
(§2) The ion optics of each test compound were optimized for their declustering potential (DP), […] (CE), collision-cell exit potential (CXP) and used in a selected ion monitoring experiment in the positive ion mode. The peak area ratio of each test compound to internal standard was then evaluated for stability. The extent of metabolism was calculated based on the disappearance of the test compound, compared to its initial concentration. The initial rates of clearance of the test compound were calculated using the linear regression plot of semi-log % remaining of the compound versus time. The elimination rate constant (k) of the linear regression plot was then used to determine t1/2 and the intrinsic clearance (CLint) using the following formula, where Chepatocyte (million cells/mL) is the cell density of the incubation:
(§3) The predicted hepatic clearance (CLhep) was calculated using the well stirred method with the following formula with CLint(in vivo) normalized based on liver weight: […]
(§4) The relevant physiological parameters of liver weight, blood flow, and hepatocellularity for various species are listed below: […]

[2] = Metabolic stability in human hepatocytes; settings: cryopreserved hepatocytes; human hepatocytes, 1 μM
Experimental: as §1, §2, §3, §4

[3] = Caco-2 passive permeability and efflux ratio; settings: human; for efflux ratio at 120 min, 5 μM: pH 7.4, Caco-2, Papp (B-to-A)/Papp (A-to-B), read-out: Efflux Ratio (ER); for Papp at 120 min, 5 μM: Caco-2, 5 μM, pH 7.4, 120 minutes
Experimental: Caco-2 cells (clone C2BBe1) were obtained from American Type Culture Collection (Manassas, VA). Cell monolayers were grown to confluence on collagen-coated, microporous membranes in 12-well assay plates. Details of the plates and their certification are shown below. The permeability assay buffer was Hanks' balanced salt solution containing 10 mM HEPES and 15 mM glucose at a pH of 7.4. The buffer in the receiver chamber also contained 1% bovine serum albumin. The dosing solution concentration was 5 μM of test article in the assay buffer. Cell monolayers were dosed on the apical side (A-to-B) or basolateral side (B-to-A) and incubated at 37° C. with 5% CO2 in a humidified incubator. Samples were taken from the donor and receiver chambers at 120 minutes. Each determination was performed in duplicate. The flux of lucifer yellow was also measured post-experimentally for each monolayer to ensure no damage was inflicted to the cell monolayers during the flux period. All samples were assayed by LC-MS/MS using electrospray ionization. The apparent permeability (Papp) and percent recovery were calculated as follows:
[formula] [formula] where, dCr/dt is the slope of the cumulative receiver concentration versus time in μM s^−1; Vr is the volume of the receiver compartment in cm^3; Vd is the volume of the donor compartment in cm^3; A is the area of the insert (1.13 cm^2 for 12-well); CA is the average of the nominal dosing concentration and the measured 120-minute donor concentration in μM; CN is the nominal concentration of the dosing solution in μM; Cr^final is the cumulative receiver concentration in μM at the end of the incubation period; Cd^final is the concentration of the donor in μM at the end of the incubation period. Efflux ratio (ER) is defined as Papp (B-to-A)/Papp (A-to-B).

CLint scaled at 1 μM [1] [mL/min/kg]	half-life at 1 μM [1] [h]	CLint scaled at 1 μM [2] [mL/min/kg]	half-life at 1 μM [2] [h]	efflux ratio at 120 min, 5 μM [3]	Papp at 120 min, 5 μM [3] [×10⁻⁶ cm/s]	SMILES
30.2 ± 1.5	1.83 ± 0.0907	17.5 ± 1.33	2.29 ± 0.174	1.31	16.8	CC1(c2ccc(C#N)cc2F)Oc2cccc(C3CCN(Cc4nc5ccc(C(=O)O)cc5n4Cc4cncs4)CC3)c2O1 (centres unmarked) [Compound 31]
32.5 ± 0.73	1.71 ± 0.0383	7.18 ± 0.31	5.58 ± 0.244	2.14	9.41	N#Cc1ccc(COc2cccc(N3CCN(Cc4nc5ccc(C(=O)O)cc5n4Cc4cncs4)CC3)n2)c(F)c1 [Compound 30]
38.9 ± 1.14	1.49 ± 0.044	10.6 ± 0.66	3.82 ± 0.241	9.77	2.82	N#Cc1ccc(COc2ccnc(C3CCN(Cc4nc5ccc(C(=O)O)cc5n4Cc4cncs4)CC3)n2)c(F)c1 [Compound 20]

Second part, the compound before the results:

SMILES	CLint scaled at 1 μM [1] [mL/min/kg]	half-life at 1 μM [1] [h]	CLint scaled at 1 μM [2] [mL/min/kg]	half-life at 1 μM [2] [h]	efflux ratio at 120 min, 5 μM [3]	Papp at 120 min, 5 μM [3] [×10⁻⁶ cm/s]
Cc1ncsc1Cn1c(CN2CCC(c3cccc(OCc4ccc(C#N)cc4F)n3)CC2)nc2ccc(C(=O)O)cc21 [Compound 4]	36 ± 1.36	1.62 ± 0.0477	24.3 ± 0.74	1.66 ± 0.0508	0.975	49.9
N#Cc1ccc(COc2cccc(C3CCN(Cc4nc5ccc(C(=O)O)cc5n4C[C@@H]4CCO4)CC3)n2)c(F)c1 [Reference Compound A, reference compound]	48.2 ± 1.33	1.21 ± 0.0425	7.18 ± 0.45	5.79 ± 0.379	–	15.5
N#Cc1ccc(COc2cccc(C3CCN(Cc4nc5ccc(C(=O)O)cc5n4Cc4cncs4)CC3)n2)c(F)c1 [Compound 2]	42.6 ± 2.46	1.32 ± 0.083	15.5 ± 0.82	2.61 ± 0.154	1.66	31.5
